From US11453703B2, “Heterotandem bicyclic peptide complexes” (BicycleTX Limited, priority 2018, dated 2022) come the findings set out here.

Where only a bound is given, the exact number is not on record here.

Data set [1] relates to human PBMC co-cultured with 4T1-D02 (Nectin4+). Nature of the data set: Human PBMC-4T1 co-culture (cytokine release) assay. It counts as cell-based. The following applies: anti-CD3 stimulated PBMC, 48 hours. Here is the method: Mouse mammary gland tumor cell line 4T1-1 (4T1-Parental) and murine Nectin-4 overexpressing 4T1 (4T1-D02) were cultured in RPMI1640 supplemented with 10% heat-inactivated Fetal Bovine Serum, 100 I.U/ml Penicillin and 100 I.U/Streptomycin, 20 mM HEPES, 1× Non-Essential Amino Acids, and 2 mM L-Glutamine (RPMI working medium). Frozen PBMCs from healthy human donors were thawed and washed one time in room temperature PBS, and then resuspended in RPMI working medium. For tumor cell and PBMC co-culture, 10000 PBMCs and 2000 tumor cells (5:1) were mixed and plated in each well of a 384 well plate. For stimulating human PBMCs, 125 ng/ml of soluble anti-CD3 mAb (clone OKT3) was added to the culture on day 0. Test, control compounds or vehicle controls were added to respective wells and brought the final volume per well to 100u1. Plates were incubated in a 37° C. cell culture incubator with 5% CO2 for up to three days. Supernatants were collected 48 hours after stimulation, and human IL-2 and IFFγ were detected using HTRF assays. Raw data were analyzed using Excel or Prism software to generate standard curves to interpolate protein concentrations. Data represents one study with three different donor PBMC tested in experimental duplicates.

The next data set deals with T1, human Nectin-4 protein (Homo sapiens, UniProt Q96NY8).
T1 construct: Human Nectin-4 (residues Gly32-Ser349); host or cells: Sf21 insect cells (baculovirus, pFastbac-1)
T1 sequence (Q96NY8 32-349): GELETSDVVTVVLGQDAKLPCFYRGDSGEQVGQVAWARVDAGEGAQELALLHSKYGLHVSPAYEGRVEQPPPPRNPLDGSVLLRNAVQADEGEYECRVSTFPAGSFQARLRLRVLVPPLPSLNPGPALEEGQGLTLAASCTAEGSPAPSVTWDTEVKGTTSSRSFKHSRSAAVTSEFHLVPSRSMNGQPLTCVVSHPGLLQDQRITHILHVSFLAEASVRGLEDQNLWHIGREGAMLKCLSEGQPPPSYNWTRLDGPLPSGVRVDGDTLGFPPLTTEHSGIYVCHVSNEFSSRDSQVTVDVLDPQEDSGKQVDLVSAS
Briefly: Nectin-4 Biacore (SPR) binding assay. The conditions noted are these: biotinylated human Nectin-4, 25° C. Here is the method:
Biacore experiments were performed to determine ka (M^−1s^−1), kd (s^−1), KD (nM) values of heterotandem peptides binding to human Nectin-4 protein (obtained from Charles River). Human Nectin-4 (residues Gly32-Ser349; NCBI RefSeq: NP_112178.2) with a gp67 signal sequence and C-terminal FLAG tag was cloned into pFastbac-1 and baculovirus made using standard Bac-to-Bac™ protocols (Life Technologies). Sf21 cells at 1×10^6 ml^−1 in Excell-420 medium (Sigma) at 27° C. were infected at an MOI of 2 with a P1 virus stock and the supernatant harvested at 72 hours. The supernatant was batch bound for 1 hour at 4° C. with Anti-FLAG M2 affinity agarose resin (Sigma) washed in PBS and the resin subsequently transferred to a column and washed extensively with PBS. The protein was eluted with 100 μg/ml FLAG peptide. The eluted protein was concentrated to 2 ml and loaded onto an S-200 Superdex column (GE Healthcare) in PBS at 1 ml/min. 2 ml fractions were collected and the fractions containing Nectin-4 protein were concentrated to 16 mg/ml.
The protein was extensively desalted to remove uncoupled biotin using spin columns into PBS.
For analysis of peptide binding, a Biacore 3000 instrument was used with a CM5 chip (GE Healthcare). Streptavidin was immobilized on the chip using standard amine-coupling chemistry at 25° C. with HBS-N (10 mM HEPES, 0.15 M NaCl, pH 7.4) as the running buffer. Briefly, the carboxymethyl dextran surface was activated with a 7 minute injection of a 1:1 ratio of 0.4 M 1-ethyl-3-(3-dimethylaminopropyl) carbodiimide hydrochloride (EDC)/0.1 M N-hydroxy succinimide (NHS) at a flow rate of 10 μl/min. For capture of streptavidin, the protein was diluted to 0.2 mg/ml in 10 mM sodium acetate (pH 4.5) and captured by injecting 120 μl of streptavidin onto the activated chip surface. Residual activated groups were blocked with a 7 minute injection of 1 M ethanolamine (pH 8.5) and biotinylated Nectin-4 captured to a level of 1,200-1,800 RU. Buffer was changed to PBS/0.05% Tween 20 and a dilution series of the peptides was prepared in this buffer with a final DMSO concentration of 0.5%. The top peptide concentration was 100 nM with 6 further 2-fold dilutions. The SPR analysis was run at 25° C. at a flow rate of 50 μl/min with 60 seconds association and dissociation between 400 and 1,200 seconds depending upon the individual peptide. Data were corrected for DMSO excluded volume effects. All data were double-referenced for blank injections and reference surface using standard processing procedures and data processing and kinetic fitting were performed using Scrubber software, version 2.0c (BioLogic Software). Data were fitted using simple 1:1 binding model allowing for mass transport effects where appropriate.
(In general: Surface plasmon resonance follows binding to a sensor surface in real time, without labels.)

Data set [2] deals with T2, CD137 (Homo sapiens, UniProt Q07011). Nature of the data set: CD137 reporter assay, co-culture with Nectin-4 tumour cells.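 On all read-outs here: jurkat reporter cells co-cultured with tumour cells and test article for 6 h, luminescence signal relative to Jurkat plus tumour cells lacking test article.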 It counts as cell-based. On the set-up: host or cells: Jurkat reporter cells. The following applies: for Fold Induction over Background: tumour target Nectin4, co-culture with H1376, 6 h.
The target in data set [3] is T2, CD137. Nature of the data set: CD137 Biacore (SPR) binding assay. On the set-up: purchased R&D systems. The conditions noted are these: biotinylated human CD137, 25° C. The procedure, abridged:
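Biotinylated human CD137 captured (270-1500 RU) on streptavidin-coupled dextran chip; peptides up to 500 nM in PBS/0.05% Tween 20, 0.5% DMSO, at 25°C, 60 s association, 900 s dissociation. Double-referenced data fitted to 1:1 binding model, with mass transport where appropriate.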

T2 sequence (Q07011 24-255): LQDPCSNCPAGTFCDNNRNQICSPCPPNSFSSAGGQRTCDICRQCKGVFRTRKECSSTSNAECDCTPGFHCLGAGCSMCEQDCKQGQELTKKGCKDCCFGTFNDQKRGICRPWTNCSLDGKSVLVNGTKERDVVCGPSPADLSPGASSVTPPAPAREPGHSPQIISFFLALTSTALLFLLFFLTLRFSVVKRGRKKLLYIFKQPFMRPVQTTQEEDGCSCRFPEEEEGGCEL

For `CCCC[C@@H]1NC(=O)[C@H](Cc2ccc(O)cc2)NC(=O)[C@@H]2CCCN2C(=O)[C@H](CC(=O)O)NC(=O)[C@H](C)NC(=O)[C@H](Cc2ccccc2)NC(=O)[C@@H]2CSCCC(=O)N3CN(CN(C3)C(=O)CCSC[C@@H](C(=O)N[C@@H](CNC(=O)CCOCCOCCOCCOCCOCCOCCOCCOCCOCCOCCOCCOCCn3cc(CCC(=O)NCCC(=O)N(C)CC(=O)N(C)CC(=O)N(C)CC(=O)N(C)CC(=O)N(C)CC(=O)N(C)CC(=O)N(C)CC(=O)N(C)CC(=O)N(C)CC(=O)N(C)CC(=O)N[C@H]4CSCCC(=O)N5CN6CN(C5)C(=O)CCSC[C@H](NC(=O)[C@@H](CC(=O)O)NC(=O)[C@H](Cc5cccc7ccccc57)NC(=O)[C@@H]5CCCN5C4=O)C(=O)N[C@@H](CCSC)C(=O)N[C@@H](CCCCNC(=N)N)C(=O)N[C@@H](CC(=O)O)C(=O)N[C@H](Cc4c[nH]c5ccccc45)C(=O)N[C@@H](CO)C(=O)N[C@@H]([C@@H](C)O)C(=O)N4CCC[C@H]4C(=O)N4C[C@H](O)C[C@H]4C(=O)N[C@H](Cc4c[nH]c5ccccc45)C(=O)N[C@H](C(N)=O)CSCCC6=O)nn3)C(N)=O)NC1=O)C(=O)CCSC[C@H](NC(=O)[C@H](C)NC(C)=O)C(=O)N[C@@H]([C@@H](C)CC)C(=O)N[C@@H](CCC(=O)O)C(=O)N[C@@H](CCC(=O)O)C(=O)NCC(=O)N[C@@H](CCC(N)=O)C(=O)N[C@@H](Cc1ccc(O)cc1)C(=O)N2` [BCY9350], the “max IFN-y” value in data set [1] was “No Activity up to 1 μM”. Moreover, the Kd on human Nectin-4 protein was > 200 nM. The fold induction at 0.1 µM on CD137 [2] (read-out: Fold Induction over Background at 100 nM) is < 2.

Molecule `CCCC[C@@H]1NC(=O)[C@H](Cc2ccc(O)cc2)NC(=O)[C@@H]2CCCN2C(=O)[C@H](CC(=O)O)NC(=O)[C@H](C)NC(=O)[C@H](Cc2ccccc2)NC(=O)[C@@H]2CSCCC(=O)N3CN(CN(C3)C(=O)CCSC[C@@H](C(=O)N[C@@H](CNC(=O)CCc3cn(CCCNC(=O)CN(C)C(=O)CN(C)C(=O)CN(C)C(=O)CN(C)C(=O)CN(C)C(=O)COCCOCCOCCOCCOCCNC(=O)N[C@H]4CSCCC(=O)N5CN6CN(C5)C(=O)CCSC[C@H](NC(=O)[C@@H](CC(=O)O)NC(=O)[C@H](Cc5cccc7ccccc57)NC(=O)[C@@H]5CCCN5C4=O)C(=O)N[C@@H](CCSC)C(=O)N[C@@H](CCCCNC(=N)N)C(=O)N[C@@H](CC(=O)O)C(=O)N[C@@H](Cc4c[nH]c5ccccc45)C(=O)N[C@@H](CO)C(=O)N[C@@H]([C@@H](C)O)C(=O)N4CCC[C@H]4C(=O)N4C[C@H](O)C[C@H]4C(=O)N[C@@H](Cc4c[nH]c5ccccc45)C(=O)N[C@H](C(N)=O)CSCCC6=O)nn3)C(N)=O)NC1=O)C(=O)CCSC[C@H](NC(=O)[C@H](C)NC(C)=O)C(=O)N[C@@H]([C@@H](C)CC)C(=O)N[C@@H](CCC(=O)O)C(=O)N[C@@H](CCC(=O)O)C(=O)NCC(=O)N[C@@H](CCC(N)=O)C(=O)N[C@@H](Cc1ccc(O)cc1)C(=O)N2` [BCY9410] came in with a Kd on CD137 [3] of 65.8 nM. The molecule also yielded a Kd on human Nectin-4 protein of 1.49 nM. On CD137 [2], the concentration for a half-maximal effect (EC50) was 1.3 nM and the “Fold Induction over Background” value came out at 24 fold.

The molecule `CCCC[C@@H]1NC(=O)[C@H](Cc2ccc(O)cc2)NC(=O)[C@@H]2CCCN2C(=O)[C@H](CC(=O)O)NC(=O)[C@H](C)NC(=O)[C@H](Cc2ccccc2)NC(=O)[C@@H]2CSCCC(=O)N3CN(CN(C3)C(=O)CCSC[C@@H](C(=O)N[C@@H](CNC(=O)CCc3cn(CCOCCOCCOCCOCCOCCNC(=O)N[C@H]4CSCCC(=O)N5CN6CN(C5)C(=O)CCSC[C@H](NC(=O)[C@@H](CC(=O)O)NC(=O)[C@H](Cc5cccc7ccccc57)NC(=O)[C@@H]5CCCN5C4=O)C(=O)N[C@@H](CCSC)C(=O)N[C@@H](CCCCNC(=N)N)C(=O)N[C@@H](CC(=O)O)C(=O)N[C@@H](Cc4c[nH]c5ccccc45)C(=O)N[C@@H](CO)C(=O)N[C@@H]([C@@H](C)O)C(=O)N4CCC[C@H]4C(=O)N4C[C@H](O)C[C@H]4C(=O)N[C@@H](Cc4c[nH]c5ccccc45)C(=O)N[C@H](C(N)=O)CSCCC6=O)nn3)C(N)=O)NC1=O)C(=O)CCSC[C@H](NC(=O)[C@H](C)NC(C)=O)C(=O)N[C@@H]([C@@H](C)CC)C(=O)N[C@@H](CCC(=O)O)C(=O)N[C@@H](CCC(=O)O)C(=O)NCC(=O)N[C@@H](CCC(N)=O)C(=O)N[C@@H](Cc1ccc(O)cc1)C(=O)N2` [BCY9411] displayed a dissociation constant (Kd) on CD137 [3] of 71.1 nM. Also, binding at human Nectin-4 protein was put at a Kd of 1.48 nM. For the same molecule, on CD137 [2], the concentration giving a half-maximal response (EC50) worked out at 14 nM and the “Fold Induction over Background” value is 41 fold.

By Kd is commonly meant the free concentration of one partner at which half of the binding sites on the other are occupied at equilibrium, for simple one-to-one binding. A low value points to higher affinity. In general, EC50 refers to the concentration giving half of the maximal effect.
